Test results reported in BindingDB's records for doi:10.1021/acs.jmedchem.9b01161 (Research Triangle Institute, 2019).

Assays:
Cannabinoid receptor 1 [1] = target: T1, Cannabinoid receptor 1 (Homo sapiens, UniProt P21554); assay: Allosteric modulator activity at human CB1 receptor expressed in HEK293 cell membranes assessed as suppression of 100 nM CP55,940-induced [35S]GTPgammaS binding incubated for 60 mins by scintillation counting method
Cannabinoid receptor 1 [2] = target: T1, Cannabinoid receptor 1; assay: Allosteric modulator activity at human CB1 receptor expressed in CHO-RD-HGA16 cells co-expressing Galpha16 assessed as suppression of 100 nM CP55,940-induced calcium mobilization pre-incubated for 15 mins by Calcium 5 dye based FLIPR assay

T1 sequence (P21554 whole entry): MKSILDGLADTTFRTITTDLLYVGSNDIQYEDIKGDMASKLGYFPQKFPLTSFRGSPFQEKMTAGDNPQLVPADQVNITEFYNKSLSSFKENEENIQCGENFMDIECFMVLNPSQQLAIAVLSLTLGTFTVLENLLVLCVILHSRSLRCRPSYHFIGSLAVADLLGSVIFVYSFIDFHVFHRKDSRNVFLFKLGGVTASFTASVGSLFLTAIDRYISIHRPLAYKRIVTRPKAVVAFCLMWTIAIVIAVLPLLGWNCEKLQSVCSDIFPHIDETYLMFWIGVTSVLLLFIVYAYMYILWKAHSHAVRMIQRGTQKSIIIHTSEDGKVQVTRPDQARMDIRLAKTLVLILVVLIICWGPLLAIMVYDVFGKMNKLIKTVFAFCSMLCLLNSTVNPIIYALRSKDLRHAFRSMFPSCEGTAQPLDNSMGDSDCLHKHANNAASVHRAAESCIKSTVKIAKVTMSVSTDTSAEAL

IC50 (Cannabinoid receptor 1 [2]) [µM] | Structure (SMILES) | IC50 (Cannabinoid receptor 1 [1]) [µM]
> 10 | O=C(Nc1ccc(Cl)cc1)N[C@H]1C[C@H]1c1ccccc1 | > 10
– | COc1ccc(-c2cccc(N3CCCC3)n2)cc1NC(=O)Nc1ccc(Cl)cc1 | > 10
